Test results as given in patent publication US4450269A, “Mono-5-substituted-3-chloro-4H-1,2,6-thiadiazin-4-one antifungal agents” (FMC Corporation, priority 1980, dated 1984).

Key:
Venturia inaequalis = assay: Spore germination test; assay type: cell-based; settings: VI, 48 hours
Procedure: VI = Venturia inaequalis
The test chemical was dissolved or suspended in acetone in an amount such that 0.8 ml of the resulting suspension or solution, mixed with 40 ml water agar produced a water agar solution containing 40, 10, 2.5 and 1 ppm of test chemical. The resulting agar solution, at 50° C., was then divided equally between two sterile petri dishes, each having four separated quadrants, and allowed to solidify. […] quadrants of each dish were flooded with 0.1 ml of a spore suspension in sterile water. Spores of two pathogens, Erysiphe polygoni and Uromyes phaseoli, from infected plant leaves, were brushed on the remaining two quadrants. The tests were then incubated 48 hours, at 24° C.
Readings were then taken and the percentage of germinated spores calculated. From this percentage, a spore germination rating was assigned as follows: […]

Uromyces phaseoli = assay: whole plant or invertebrate; settings: foliar, read-out: Percent Disease Control, foliar, bean rust

Compound	Spore Germination Rating (Venturia inaequalis; 1.0 ppm)	Spore Germination Rating (Venturia inaequalis; 2.5 ppm)	Spore Germination Rating (Venturia inaequalis; 10 ppm)	Spore Germination Rating (Venturia inaequalis; 40 ppm)	pest or weed control at 150 ppm (Uromyces phaseoli) [%]
O=c1c(Cl)nsnc1Oc1c(Cl)cccc1Cl [Compound 18, 3-chloro-5-(2,6-dichlorophenoxy)-4H--1,2,6-thiadiazin-4-one]	1 (10-40)	0 (0-10)	0 (0-10)	0 (0-10)	100
O=c1c(Cl)nsnc1Oc1cccc(Cl)c1Cl [Compound 19, 3-chloro-5-(2,3-dichlorophenoxy)-4H--1,2,6-thiadiazin-4-one]	1 (10-40)	0 (0-10)	0 (0-10)	0 (0-10)	0
O=c1c(Cl)nsnc1Oc1cc(Cl)cc(Cl)c1 [Compound 20, 3-chloro-5-(3,5-dichlorophenoxy)-4H--1,2,6-thiadiazin-4-one]	0 (0-10)	0 (0-10)	0 (0-10)	0 (0-10)	100
Cc1cccc(Oc2nsnc(Cl)c2=O)c1 [Compound 21, 3-chloro-5-(3-methylphenoxy)-4H--1,2,6-thiadiazin-4-one]	4 (80-100)	3 (60-80)	0 (0-10)	0 (0-10)	100
Cc1ccccc1Oc1nsnc(Cl)c1=O [Compound 22, 3-chloro-5-(2-methylphenoxy)-4H--1,2,6-thiadiazin-4-one]	0 (0-10)	0 (0-10)	0 (0-10)	0 (0-10)	100
Cc1ccc(Oc2nsnc(Cl)c2=O)c(C)c1 [Compound 23, 3-chloro-5-(2,4-dimethylphenoxy)-4H--1,2,6-thiadiazin-4-one]	4 (80-100)	3 (60-80)	1 (10-40)	0 (0-10)	100
Cc1cccc(C)c1Oc1nsnc(Cl)c1=O [Compound 24, 3-chloro-5-(2,6-dimethylphenoxy)-4H--1,2,6-thiadiazin-4-one]	2 (40-60)	0 (0-10)	0 (0-10)	0 (0-10)	100
Cc1cc(C)cc(Oc2nsnc(Cl)c2=O)c1 [Compound 25, 3-chloro-5-(3,5-dimethylphenoxy)-4H--1,2,6-thiadiazin-4-one]	4 (80-100)	0 (0-10)	2 (40-60)	0 (0-10)	100
Nc1ccc(Oc2nsnc(Cl)c2=O)cc1 [Compound 26, 5-(4-aminophenoxy)-3-chloro-4H--1,2,6-thiadiazin-4-one]	4 (80-100)	4 (80-100)	4 (80-100)	1 (10-40)	0
CNC(=O)Nc1ccc(Oc2nsnc(Cl)c2=O)cc1 [Compound 28, 3-chloro-5-[4-(3-methylureido)-phenoxy]-4H--1,2,6-thiadiazin-4-one]	4 (80-100)	4 (80-100)	2 (40-60)	3 (60-80)	0
O=C(Nc1ccccc1)Nc1ccc(Oc2nsnc(Cl)c2=O)cc1 [Compound 29, 3-chloro-5-[4-(3-phenylureido)-phenoxy]-4H--1,2,6-thiadiazin-4-one]	4 (80-100)	4 (80-100)	4 (80-100)	0 (0-10)	0
O=c1c(Cl)nsnc1Oc1c(Cl)cc(Cl)cc1Cl [Compound 30, 3-chloro-5-(2,4,6-trichlorophenoxy)-4H--1,2,6-thiadiazin-4-one]	1 (10-40)	0 (0-10)	0 (0-10)	0 (0-10)	100
O=c1c(Cl)nsnc1Oc1c(Cl)c(Cl)c(Cl)c(Cl)c1Cl [Compound 31, 3-chloro-5-(pentachlorophenoxy)-4H--1,2,6-thiadiazine-4-one]	0 (0-10)	0 (0-10)	0 (0-10)	0 (0-10)	0
O=c1c(Cl)nsnc1Oc1cccc2ccccc12 [Compound 32, 3-chloro-5(1-naphthoxy)-4H-1,2,6-thiadiazin-4-one]	3 (60-80)	0 (0-10)	0 (0-10)	0 (0-10)	90
O=c1c(Cl)nsnc1Oc1ccccc1Br [Compound 34, 3-chloro-5-(2-bromophenoxy)-4H-1,2,6,-thiadiazin-4-one]	0 (0-10)	0 (0-10)	0 (0-10)	0 (0-10)	85
CC(=O)Nc1cccc(Oc2nsnc(Cl)c2=O)c1 [Compound 42, 3-[(3-N--acetylamino)-phenoxy]-5-chloro-4H--1,2,6-thiadiazin-4-one]	4 (80-100)	4 (80-100)	4 (80-100)	1 (10-40)	100
CC(=O)Nc1ccccc1Oc1nsnc(Cl)c1=O [Compound 43, 3-[(2-acetylamino)-phenoxy]-5-chloro-4H--1,2,6-thiadiazin-4-one]	4 (80-100)	4 (80-100)	4 (80-100)	2 (40-60)	0
O=c1c(Cl)nsnc1Oc1cccc(C(F)(F)F)c1 [Compound 44, 3-chloro-5-[(3-trifluoromethyl)phenoxy]-4H--1,2,6-thiadiazin-4-one]	1 (10-40)	1 (10-40)	0 (0-10)	0 (0-10)	100
O=C(O)Cc1ccccc1Oc1nsnc(Cl)c1=O [Compound 45, 3-(2-carboxymethylphenoxy)-5-chloro-4H--1,2,6-thiadiazin-4-one]	4 (80-100)	4 (80-100)	4 (80-100)	0 (0-10)	95
CC(=O)c1ccc(Oc2nsnc(Cl)c2=O)cc1 [Compound 47, 3-(4-acetylphenoxy)-5-chloro-4H--1,2,6-thiadiazin-4-one]	1 (10-40)	0 (0-10)	0 (0-10)	0 (0-10)	0
CC(=O)c1cccc(Oc2nsnc(Cl)c2=O)c1 [Compound 48, 3-(3-acetylphenoxy)-5-chloro-4H--1,2,6-thiadiazin-4-one]	3 (60-80)	1 (10-40)	0 (0-10)	0 (0-10)	100
CC(=O)c1ccccc1Oc1nsnc(Cl)c1=O [Compound 49, 3-(2-acetylphenoxy)-5-chloro-4H--1,2,6-thiadiazin-4-one]	4 (80-100)	4 (80-100)	1 (10-40)	0 (0-10)	100
O=C(O)c1ccc(Oc2nsnc(Cl)c2=O)cc1 [Compound 50, 3-(4-carboxyphenoxy)-5-chloro-4H--1,2,6-thiadiazin-4-one]	4 (80-100)	4 (80-100)	4 (80-100)	0 (0-10)	90
Cc1cc(Oc2nsnc(Cl)c2=O)ccc1Cl [Compound 54, 3-chloro-5-(4-chloro-3-methylphenoxy)-4H--1,2,6-thiadiazin-4-one]	1 (10-40)	0 (0-10)	0 (0-10)	0 (0-10)	100
Cc1cc(Cl)ccc1Oc1nsnc(Cl)c1=O [Compound 55, 3-chloro-5-(4-chloro-2-methylphenoxy)-4H--1,2,6-thiadiazin-4-one]	1 (10-40)	0 (0-10)	0 (0-10)	0 (0-10)	100
Cc1ccc(Oc2nsnc(Cl)c2=O)c(Br)c1 [Compound 57, 3-[(2-bromo-4-methyl)-phenoxy]-5-chloro-4H--1,2,6-thiadiazin-4-one]	2 (40-60)	0 (0-10)	0 (0-10)	0 (0-10)	100
Cc1cc(Cl)c(Oc2nsnc(Cl)c2=O)cc1C [Compound 58, 3-chloro-5-[(2-chloro-4,5-dimethyl)phenoxy]-4H--1,2,6-thiadiazin-4-one]	2 (40-60)	1 (10-40)	0 (0-10)	0 (0-10)	100
Cc1cc(Oc2nsnc(Cl)c2=O)cc(C)c1Cl [Compound 59, 3-chloro-5-[(4-chloro-3,5-dimethyl)phenoxy]-4H--1,2,6-thiadiazin-4-one]	1 (10-40)	1 (10-40)	0 (0-10)	1 (10-40)	0
Cc1cc(Oc2nsnc(Cl)c2=O)cc(C)c1Br [Compound 60, 3-[(4-bromo-3,5-dimethyl)-phenoxy]-5-chloro-4H--1,2,6-thiadiazin-4-one]	2 (40-60)	1 (10-40)	0 (0-10)	0 (0-10)	100
